Data taken from patent US9914732B2, “Diazabicyclo[4.3.1]decane derivatives for treatment of psychiatric disorders” (Max-Planck-Gesellschaft zur Forderung der Wissenschaften …, priority 2014, dated 2018).

Tests used:
FKBP52 = molecular target: T1, FKBP52 (Homo sapiens, UniProt Q02790); assay: Fluorescence polarization (FP) assay, binding to the FK506-binding domain of FKBP52; details: FK506-binding domain of FKBP52 (FKBP52FK1), competition with fluorescent ligand 2b
T1 sequence (Q02790 50-138 limits assumed): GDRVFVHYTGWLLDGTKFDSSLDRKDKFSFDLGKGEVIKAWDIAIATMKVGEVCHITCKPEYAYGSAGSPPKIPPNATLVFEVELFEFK
Summary of the method: (§1)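 Competitive FP with fluorescent ligand 2b at 20 nM (2× concentration) and FK1 domain at 280 nM (FKBP51) or 400 nM (FKBP52) in 20 mM HEPES pH 8, 0.01% Triton-X100. Anisotropy read after 30 min at room temperature (ex 485, em 535 nm), in duplicate; IC50 by four-parameter fit, Ki via Wang competitive equation.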

FKBP51 = molecular target: T2, FKBP51 (Homo sapiens, UniProt Q13451); assay: Fluorescence polarization (FP) assay, binding to the FK506-binding domain of FKBP51; details: FK506-binding domain of FKBP51 (FKBP51FK1), competition with fluorescent ligand 2b
T2 sequence (Q13451 42-130 limits assumed): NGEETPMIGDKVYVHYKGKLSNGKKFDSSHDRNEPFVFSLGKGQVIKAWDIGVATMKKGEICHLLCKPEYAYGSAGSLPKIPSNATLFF
Summary of the method: as §1

| SMILES | Ki (FKBP52) [nM] | Ki (FKBP51) [nM] |
| --- | --- | --- |
| C#CCN1C[C@H](COC)[C@H]2CCC[C@@H](C1=O)N2S(=O)(=O)c1ccc(-c2ncccn2)cc1 [Compound N15, (1S,5S,6R)-5-(methoxymethyl)-3-(prop-2-yn-1-yl)-10-((4-(pyrimidin-2-yl)phenyl)sulfonyl)-3,10-diazabicyclo[4.3.1]decan-2-one] | 100 to 500 | 100 to 500 |
| C#CCN1C[C@H](COC)[C@H]2CCC[C@@H](C1=O)N2S(=O)(=O)c1nc2ccccc2[nH]1 [Compound N16, (1S,5S,6R)-10-((1H-benzo[d]imidazol-2-yl)sulfonyl)-5-(methoxymethyl)-3-(prop-2-yn-1-yl)-3,10-diazabicyclo[4.3.1]decan-2-one] | 100 to 500 | 100 to 500 |
| COC[C@H]1CN(Cc2cnn[nH]2)C(=O)[C@@H]2CCC[C@H]1N2S(=O)(=O)c1cccc(F)c1 [Compound N17, (1S,5S,6R)-3-((1H-1,2,3-triazol-5-yl)methyl)-10-((3-fluorophenyl)sulfonyl)-5-(methoxymethyl)-3,10-diazabicyclo[4.3.1]decan-2-one] | ≤ 100 | ≤ 100 |
| COC[C@H]1CN(Cc2cnn[nH]2)C(=O)[C@@H]2CCC[C@H]1N2S(=O)(=O)c1cc(Br)cc(Br)c1 [Compound N18, (1S,5S,6R)-3-((1H-1,2,3-triazol-5-yl)methyl)-10-((3,5-dibromophenyl)sulfonyl)-5-(methoxymethyl)-3,10-diazabicyclo[4.3.1]decan-2-one] | ≤ 100 | ≤ 100 |
| COC[C@H]1CN(Cc2cnn[nH]2)C(=O)[C@@H]2CCC[C@H]1N2S(=O)(=O)c1cccc(C(N)=O)c1 [Compound N19, 3-(((1S,5S,6R)-3-((1H-1,2,3-triazol-5-yl)methyl)-5-(methoxymethyl)-2-oxo-3,10-diazabicyclo[4.3.1]decan-10-yl)sulfonyl)benzamide] | ≤ 100 | ≤ 100 |
| COC[C@H]1CN(Cc2cnn[nH]2)C(=O)[C@@H]2CCC[C@H]1N2S(=O)(=O)c1cc(Br)cc(C(N)=O)c1 [Compound N20, 3-(((1S,5S,6R)-3-((1H-1,2,3-triazol-5-yl)methyl)-5-(methoxymethyl)-2-oxo-3,10-diazabicyclo[4.3.1]decan-10-yl)sulfonyl)-5-bromobenzamide] | ≤ 100 | ≤ 100 |
| COC[C@H]1CN(Cc2cnn[nH]2)C(=O)[C@@H]2CCC[C@H]1N2S(=O)(=O)c1cc(Cl)cc(C(N)=O)c1 [Compound N21, 3-(((1S,5S,6R)-3-((1H-1,2,3-triazol-5-yl)methyl)-5-(methoxymethyl)-2-oxo-3,10-diazabicyclo[4.3.1]decan-10-yl)sulfonyl)-5-chlorobenzamide] | ≤ 100 | ≤ 100 |
| COC[C@H]1CN(Cc2cnn[nH]2)C(=O)[C@@H]2CCC[C@H]1N2S(=O)(=O)c1ccc(NC(C)=O)c(Br)c1 [Compound N22, N-(4-(((1S,5S,6R)-3-((1H-1,2,3-triazol-5-yl)methyl)-5-(methoxymethyl)-2-oxo-3,10-diazabicyclo[4.3.1]decan-10-yl)sulfonyl)-2-bromophenyl)acetamide] | ≤ 100 | ≤ 100 |
| COC[C@H]1CN(Cc2cnn[nH]2)C(=O)[C@@H]2CCC[C@H]1N2S(=O)(=O)c1ccc(NC(C)=O)c(Cl)c1 [Compound N23, N-(4-(((1S,5S,6R)-3-((1H-1,2,3-triazol-5-yl)methyl)-5-(methoxymethyl)-2-oxo-3,10-diazabicyclo[4.3.1]decan-10-yl)sulfonyl)-2-chlorophenyl)acetamide] | ≤ 100 | ≤ 100 |
| COC[C@H]1CN(Cc2cnn[nH]2)C(=O)[C@@H]2CCC[C@H]1N2S(=O)(=O)c1cc(Cl)c(NC(C)=O)c(Cl)c1 [Compound N24, N-(4-(((1S,5S,6R)-3-((1H-1,2,3-triazol-5-yl)methyl)-5-(methoxymethyl)-2-oxo-3,10-diazabicyclo[4.3.1]decan-10-yl)sulfonyl)-2,6-dichlorophenyl)acetamide] | ≤ 100 | ≤ 100 |
